Tests used:
Assay in all cases: relative viability (nuclei count vs DMSO), 5 days (fraction); higher = more cells survive
IPA-3 + Tozasertib = compound: C1=CC=C2C(=C1)C=CC(=C2SSC3=C(C=CC4=CC=CC=C43)O)O [IPA-3] + Cc1cc(Nc2cc(N3CCN(C)CC3)nc(Sc3ccc(NC(=O)C4CC4)cc3)n2)n[nH]1 [Tozasertib] (partner 0.1 µM)
Summary of the method: (§1)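 After 5 days of treatment, lung cancer cells in 1536-well plates were fixed and stained in a single step (final 0.05% Triton X-100, 1% formaldehyde, 1 ug/ml Hoechst) and their nuclei counted on 4× images. Treatment had been applied by pin tool the day after seeding as one drug alone or as a fixed anchor-drug dose with five library-drug doses (not always all listed) in √10 steps. Relative viability is the nuclei count of treated wells divided by that of vehicle wells, and values are medians of duplicate plates.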

IPA-3 + Foretinib = compound: C1=CC=C2C(=C1)C=CC(=C2SSC3=C(C=CC4=CC=CC=C43)O)O [IPA-3] + COc1cc2c(Oc3ccc(NC(=O)C4(C(=O)Nc5ccc(F)cc5)CC4)cc3F)ccnc2cc1OCCCN1CCOCC1 [Foretinib] (partner 0.25 µM)
Summary of the method: as §1

RAF265 + Foretinib = compound: Cn1c(Nc2ccc(C(F)(F)F)cc2)nc2cc(Oc3ccnc(-c4ncc(C(F)(F)F)[nH]4)c3)ccc21 [RAF265] + COc1cc2c(Oc3ccc(NC(=O)C4(C(=O)Nc5ccc(F)cc5)CC4)cc3F)ccnc2cc1OCCCN1CCOCC1 [Foretinib] (partner 0.25 µM)
Summary of the method: as §1

IPA-3 + Trametinib = compound: C1=CC=C2C(=C1)C=CC(=C2SSC3=C(C=CC4=CC=CC=C43)O)O [IPA-3] + CC(=O)Nc1cccc(-n2c(=O)n(C3CC3)c(=O)c3c(Nc4ccc(I)cc4F)n(C)c(=O)c(C)c32)c1 [Trametinib] (partner 0.02 µM)
Summary of the method: as §1

Cell Line | relative viability (IPA-3 + Tozasertib; first compound 0.2 µM) | relative viability (IPA-3 + Tozasertib; first compound 0.6325 µM) | relative viability (IPA-3 + Tozasertib; first compound 2 µM) | relative viability (IPA-3 + Tozasertib; first compound 6.325 µM) | relative viability (IPA-3 + Tozasertib; first compound 20 µM) | relative viability (IPA-3 + Foretinib; first compound 0.2 µM) | relative viability (IPA-3 + Foretinib; first compound 0.6325 µM) | relative viability (IPA-3 + Foretinib; first compound 2 µM) | relative viability (IPA-3 + Foretinib; first compound 6.325 µM) | relative viability (IPA-3 + Foretinib; first compound 20 µM) | relative viability (RAF265 + Foretinib; first compound 0.01 µM) | relative viability (RAF265 + Foretinib; first compound 0.03162 µM) | relative viability (RAF265 + Foretinib; first compound 0.1 µM) | relative viability (RAF265 + Foretinib; first compound 0.3162 µM) | relative viability (RAF265 + Foretinib; first compound 1 µM) | relative viability (IPA-3 + Trametinib; first compound 0.2 µM) | relative viability (IPA-3 + Trametinib; first compound 0.6325 µM) | relative viability (IPA-3 + Trametinib; first compound 2 µM) | relative viability (IPA-3 + Trametinib; first compound 6.325 µM) | relative viability (IPA-3 + Trametinib; first compound 20 µM)
NCI-H2009 | 0.805 | 0.681 | 0.834 | 0.718 | 0.725 | 1.32 | 1.15 | 1.23 | 1.16 | 1.29 | 1.29 | 1.25 | 1.14 | 1.1 | 0.658 | 0.307 | 0.266 | 0.245 | 0.279 | 0.241
ABC-1 | 0.18 | 0.183 | 0.19 | 0.188 | 0.185 | 1.06 | 1.13 | 1 | 1.17 | 1.19 | 1.16 | 1.15 | 1.2 | 1.08 | 0.514 | – | – | – | – | –
IA-LM | – | – | – | – | – | 1.24 | 0.989 | 1.16 | 1.05 | 1.23 | 1.21 | 0.933 | 1 | 0.946 | 0.769 | – | – | – | – | –
NCI-H322M | 0.502 | 0.408 | 0.527 | 0.498 | 0.513 | 1.05 | 0.961 | 1.15 | 1.04 | 1.13 | 1.09 | 1.03 | 0.781 | 0.402 | 0.275 | 0.459 | 0.481 | 0.567 | 0.453 | 0.581
NCI-H1792 | – | – | – | – | – | – | – | – | – | – | – | – | – | – | – | 0.526 | 0.504 | – | 0.407 | 0.495
LXF-289 | 0.23 | 0.164 | 0.218 | 0.186 | 0.192 | 1 | 0.919 | 0.993 | 1.01 | 1.11 | 0.999 | 0.986 | 0.938 | 0.875 | 0.709 | 0.714 | 0.646 | 0.668 | 0.662 | 0.762
HCC-827 | 0.446 | 0.423 | 0.402 | 0.442 | 0.438 | 1.04 | 1.04 | 1.08 | 0.952 | 0.947 | 0.986 | 0.971 | 1.06 | – | 0.729 | 0.553 | 0.518 | 0.585 | 0.597 | 0.675
EMC-BAC-2 | 0.279 | 0.296 | 0.312 | 0.303 | 0.269 | 1.07 | 1 | 1.07 | 1.01 | 1.22 | 1.09 | 0.741 | 0.753 | 0.685 | 0.276 | 0.938 | 0.843 | 0.829 | 0.914 | 0.812
NCI-H520 | 0.459 | 0.444 | 0.468 | 0.434 | 0.447 | 0.885 | 0.757 | 0.743 | 0.613 | 0.837 | 0.763 | 0.585 | 0.749 | 0.819 | 0.474 | 1.01 | 0.654 | – | 0.685 | 0.528
NCI-H1755 | 0.586 | 0.568 | 0.552 | 0.561 | 0.504 | 0.923 | 0.884 | 0.879 | 0.85 | 0.952 | 0.951 | 0.884 | 0.926 | 0.727 | 0.568 | 0.764 | 0.797 | 0.739 | 0.739 | 0.753
NCI-H1993 | 0.625 | 0.578 | 0.586 | 0.56 | 0.601 | 0.833 | 0.654 | 0.813 | 0.776 | 0.728 | 0.86 | 0.729 | 0.783 | 0.777 | 0.575 | 0.491 | 0.475 | 0.468 | 0.558 | 0.506
NCI-H23 | 0.506 | 0.367 | 0.432 | 0.38 | 0.354 | 1.03 | 1.02 | 0.971 | 1 | 1.17 | 0.741 | 0.847 | 0.739 | 0.724 | 0.442 | 0.379 | 0.379 | 0.342 | 0.383 | 0.443
NCI-H522 | 0.596 | 0.535 | 0.72 | 0.621 | 0.565 | – | – | – | – | – | – | – | – | – | – | 0.828 | 0.792 | 0.822 | 0.875 | 0.711
NCI-H1437 | 0.482 | 0.387 | 0.416 | 0.394 | 0.468 | 1.37 | 1.23 | 1.32 | 1.2 | 1.35 | 1.22 | 1.28 | 1.28 | 1.33 | 1.31 | 0.712 | 0.611 | 0.483 | 0.468 | 0.546
NCI-H1299 | – | – | – | – | – | 1.1 | 1.07 | 1.17 | 0.678 | 1.06 | 1.12 | 0.863 | 1.08 | 1.07 | 0.749 | – | – | – | – | –
NCI-H1563 | – | – | – | – | – | 0.996 | 0.87 | 1.01 | 1.01 | 0.867 | 1.05 | 1 | 0.984 | 0.989 | 0.935 | – | – | – | – | –
Calu-6 | – | – | – | – | – | 1.01 | 0.95 | 0.96 | 0.808 | 0.932 | 0.899 | 0.782 | 0.763 | 0.428 | 0.29 | – | – | – | – | –
NCI-H1703 | – | – | – | – | – | 0.295 | 0.339 | 0.331 | 0.349 | 0.391 | 0.335 | 0.318 | 0.351 | 0.357 | 0.253 | – | – | – | – | –
EBC-1 | – | – | – | – | – | 0.104 | 0.113 | 0.0992 | 0.121 | 0.108 | 0.101 | 0.112 | 0.0984 | 0.107 | 0.113 | – | – | – | – | –
NCI-H1648 | 0.753 | 0.545 | 0.646 | 0.391 | 0.482 | – | – | – | – | – | – | – | – | – | – | 0.476 | 0.495 | 0.555 | 0.494 | 0.524
HCC-44 | 1.09 | 0.953 | 0.996 | 0.71 | 0.93 | – | – | – | – | – | – | – | – | – | – | 1.09 | 1.04 | 1.13 | 0.984 | 1.05
A549 | – | – | – | – | – | 0.988 | 0.927 | 1.01 | 0.884 | 1.21 | 0.927 | 0.928 | 0.988 | 0.557 | 0.481 | – | – | – | – | –
